According to patent US11938143B2, “Compositions comprising 2′-deoxycytidine analogs and use thereof for the treatment of sickle cell disease, thalassemia, and cancers” (AkiraBio, Inc., priority 2021, dated 2024):

Columns and labels:
[1] = system: sickle erythroid progenitors; assay: Erythroid differentiation markers CD71 and CD235a by flow cytometry in sickle erythroid progenitors; type: cell-based, human; conditions: 48 hours
Method: (§1) FIGS. 6A-6B show representative data pertaining to primary sickle erythroid progenitors generated from peripheral blood mononuclear cells isolated from sickle cell patients using a two-phase liquid culture system. Cells treated for 48 hours were analyzed. […] Shown in the graph is the mean±SEM for n=6.
Additional studies were carried out in primary sickle erythroid progenitors were next conducted. Using a previously established two-phase culture system, (See NRF2 mediates γ-globin gene regulation and fetal hemoglobin induction in human erythroid progenitors Xingguo Zhu et al., Experimental Hematology 2019; 70:85-96, incorporated by reference herein) AB1 was evaluated in progenitors cultured from peripheral blood mononuclear cells (PBMC) isolated from sickle cell subjects, at concentrations of 3, 6, and 10 nM. PBMCs were isolated by Ficoll® Paque separation and cultured in IMDM supplemented with erythropoietin (2 IU), stem cell factor (10 ng/mL) and Interleukin 3 (10 ng/mL). On day seven, drug controls HU 75 μM, Dec 200 nM and AB1 (3, 6, and 10 nM) were added for 48 hours. Cell viability was assessed with Trypan blue, and markers of erythroid differentiation were assessed by flow cytometry using antibodies for CD71 and CD235a, to evaluate changes in differentiation. Proportions of F-cells and MFI were assayed by FACScan using staining with fluorescein isothiocyanate (FITC) anti-human HbF antibody (Bethyl). In our experience, primary erythroid progenitors are more sensitive to drug toxicity, so a lower dose range of AB1 was used. […] As a marker of early erythroid differentiation, CD71^+ progenitors were not affected by Dec or AB1 at any dose tested. In notable contrast, there was a 7-fold increase in CD71^+ cells mediated by HU (FIG. 6B).

[2] = system: sickle erythroid progenitors; assay: In vitro sickling of erythroid progenitors under overnight hypoxia (2% oxygen); type: cell-based, human; conditions: 48 hours treatment then overnight at 2% oxygen; AB1 3, 6, 10 nM; decitabine 200 nM; HU 75 μM
Method: FIGS. 9A-9B show representative data pertaining to various treatments and reduction of the level of sickle erythroid progenitors. After sickle progenitors were treated with the various drugs for 48 hours as indicated, and then incubated overnight in hypoxia conditions. […] In FIGS. 9A-9B, “UT” indicates untreated cells; “HU” indicates hydroxyurea; “DEC” indicates decitabine; and “AB1” indicates disclosed compound AB1; the concentrations are indicated, and concentration used is adjacent to the text indicating treatment compound.
We assessed effects of AB1 at the transcription levels by RT-qPCR analysis. […] Complementary studies at the protein levels were completed by flow cytometry and Western blot. […] To further support the notion that AB1 induces HbF expression, Western blot analysis was performed. […] It was observed that there was a dose-dependent 80% decrease in DNMT1 in sickle erythroid progenitors at the highest AB1 10 nM concentration (FIG. 8 D). […] After treatment for 48 hours, with the various drugs, the cells were incubated overnight at 2% oxygen, then fixed with formalin and the number of sickle versus non-sickle cells counted by phase contrast microscopy, a method previously published by the Pace (PI/PD) group (see Zhu, X., Li, B. & Pace, B. S. Haematologica 102, e285-e288, doi:10.3324/haematol.2016.160788 (2017)). […]

[3] = system: HbF; assay: F-cells and MFI by flow cytometry in sickle erythroid progenitors; type: cell-based, human; conditions: 48 hours
Method: FIGS. 8A-8D show representative data pertaining to the induction of AB1 HbF and inhibition of DNMT1 levels. Sickle erythroid progenitors were treated with the various agents shown for 48 hours. […] Shown in the graph is the mean±SEM for n=6 replicates. […] In FIGS. 8C-8D, “UT” indicates untreated cells; “HU” indicates hydroxyurea; “DEC” indicates decitabine; and “AB1” indicates disclosed compound AB1; the concentrations are indicated above the graph below the text indicating treatment compound.
Additional studies were carried out in primary sickle erythroid progenitors were next conducted. Using a previously established two-phase culture system, (See NRF2 mediates γ-globin gene regulation and fetal hemoglobin induction in human erythroid progenitors Xingguo Zhu et al., Experimental Hematology 2019; 70:85-96, incorporated by reference herein) AB1 was evaluated in progenitors cultured from peripheral blood mononuclear cells (PBMC) isolated from sickle cell subjects, at concentrations of 3, 6, and 10 nM. […] Cell viability was assessed with Trypan blue, and markers of erythroid differentiation were assessed by flow cytometry using antibodies for CD71 and CD235a, to evaluate changes in differentiation. […]
We assessed effects of AB1 at the transcription levels by RT-qPCR analysis. […]

[4] = Cell viability of primary sickle erythroid progenitors by Trypan blue; type: cell-based; conditions: human, HU 75 μM, read-out: drop in cell viability
Method: as §1
Additional studies were carried out in primary sickle erythroid progenitors were next conducted. Using a previously established two-phase culture system, (See NRF2 mediates γ-globin gene regulation and fetal hemoglobin induction in human erythroid progenitors Xingguo Zhu et al., Experimental Hematology 2019; 70:85-96, incorporated by reference herein) AB1 was evaluated in progenitors cultured from peripheral blood mononuclear cells (PBMC) isolated from sickle cell subjects, at concentrations of 3, 6, and 10 nM. PBMCs were isolated by Ficoll® Paque separation and cultured in IMDM supplemented with erythropoietin (2 IU), stem cell factor (10 ng/mL) and Interleukin 3 (10 ng/mL). On day seven, drug controls HU 75 μM, Dec 200 nM and AB1 (3, 6, and 10 nM) were added for 48 hours. Cell viability was assessed with Trypan blue, and markers of erythroid differentiation were assessed by flow cytometry using antibodies for CD71 and CD235a, to evaluate changes in differentiation. […]

Nc1ncn([C@H]2C[C@H](O)[C@@H](CO)O2)c(=O)n1 [Dec, 4-amino-1-(2-deoxy-b-D-erythro-pentofuranosyl)-1,3,5-triazin-2(1H)-one]
CD71+ progenitors (marker of early erythroid differentiation) ([1]; Dec 200 nM, AB1 at any dose tested (3, 6, 10 nM)): not affected
level of CD235a+ cells (marker of terminal differentiation) ([1]; HU 75 μM, Dec 200 nM, AB1 3, 6, 10 nM): increased by all drugs except Dec
decrease in sickle cells [2]: 80%
F-cell levels ([3]; average of SCD patients, increase from 16%, all AB1 concentrations tested, Dec 200 nM): 22%

NC(=O)NO [HU, hydroxyurea]
increase in CD71+ cells ([1]; HU 75 μM): 7 fold
decrease in sickle cells [2]: 50%
F-cell induction ([3]; HU 75 μM, all patient data combined): not observed
cytotoxicity at 48 h, 75 μM [4]: 40%
